Experimental data as given in US20050119316A1, “Semicarbazide derivatives and the use thereof as antithrombotics” (Merch Patent GmbH, priority 2002, published 2005).

Legend:
FXa = FXa (Homo sapiens, UniProt P00742); experiment: Inhibition of factor Xa (Table 1, affinity to receptors); assay type: biochemical
Text: The inhibition of factor Xa by the compounds according to the invention and the measurement of the anticoagulant and antithrombotic activity can be determined by conventional in-vitro or in-vivo methods. A suitable method is described, for example, by J. Hauptmann et al. in Thrombosis and Haemostasis 1990, 63, 220-223.
The inhibition of factor Xa can be measured, for example, by the method of T. Hara et al. in Thromb. Haemostas. 1994, 71, 314-319.

TF/FVIIa = TF/FVIIa (Homo sapiens, UniProt P08709); experiment: Inhibition of TF/factor VIIa (Table 1, affinity to receptors); assay type: biochemical
Text: The inhibition of factor VIIa by the compounds according to the invention and the measurement of the anticoagulant and antithrombotic activity can be determined by conventional in-vitro or in-vivo methods. A conventional method for the measurement of the inhibition of factor VIIa is described, for example, by H. F. Ronning et al. in Thrombosis Research 1996, 84, 73-81.

Sequence of TF/FVIIa (P08709 213-466 limits assumed): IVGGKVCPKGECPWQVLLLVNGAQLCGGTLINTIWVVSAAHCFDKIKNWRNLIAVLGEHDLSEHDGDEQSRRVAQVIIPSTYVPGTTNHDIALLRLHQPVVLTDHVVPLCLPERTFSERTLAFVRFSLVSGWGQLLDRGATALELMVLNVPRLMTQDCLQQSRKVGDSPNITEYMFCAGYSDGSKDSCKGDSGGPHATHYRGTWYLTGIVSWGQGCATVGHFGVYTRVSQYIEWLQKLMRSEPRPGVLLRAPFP
Sequence of TF/FVIIa (P08709 61-212 partner limits assumed): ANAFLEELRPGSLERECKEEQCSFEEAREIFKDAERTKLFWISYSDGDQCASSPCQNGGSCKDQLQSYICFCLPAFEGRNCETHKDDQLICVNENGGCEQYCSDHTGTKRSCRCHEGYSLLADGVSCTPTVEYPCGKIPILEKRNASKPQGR
Sequence of TF/FVIIa (P13726 33-295 partner): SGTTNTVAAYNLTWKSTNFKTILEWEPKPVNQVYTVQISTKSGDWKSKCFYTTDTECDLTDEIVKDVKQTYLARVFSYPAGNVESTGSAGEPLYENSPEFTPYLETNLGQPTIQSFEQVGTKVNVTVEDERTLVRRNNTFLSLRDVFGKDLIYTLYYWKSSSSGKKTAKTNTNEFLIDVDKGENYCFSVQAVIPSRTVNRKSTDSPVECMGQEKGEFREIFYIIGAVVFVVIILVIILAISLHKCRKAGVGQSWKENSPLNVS
Sequence of FXa (P00742 235-488 limits assumed): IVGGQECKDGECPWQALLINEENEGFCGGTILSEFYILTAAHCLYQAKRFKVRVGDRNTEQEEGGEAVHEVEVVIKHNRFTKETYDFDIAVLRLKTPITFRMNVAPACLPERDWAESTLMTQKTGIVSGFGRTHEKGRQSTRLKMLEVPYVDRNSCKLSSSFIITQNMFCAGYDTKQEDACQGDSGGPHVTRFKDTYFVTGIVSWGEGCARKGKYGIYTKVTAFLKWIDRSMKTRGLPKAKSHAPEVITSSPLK
Sequence of FXa (P00742 41-179 partner limits assumed): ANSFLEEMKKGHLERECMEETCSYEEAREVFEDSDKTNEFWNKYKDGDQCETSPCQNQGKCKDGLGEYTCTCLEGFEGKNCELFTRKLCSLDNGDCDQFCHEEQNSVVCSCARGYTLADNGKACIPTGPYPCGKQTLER

Row | IC50 (FXa) [µM] | IC50 (TF/FVIIa) [µM] | Compound
1 | 3.8 | 8.8 | CS(=O)(=O)c1ccccc1-c1ccc(NC(=O)NN(c2ccccc2)c2cccc(C(N)=NO)c2)c(F)c1 [Compound 8, 1-(3-N-hydroxyamidinophenyl)-4-(3-fluoro-2′-methylsulfonylbiphenyl-4-yl)-1-phenylsemicarbazide]
2 | 0.028 | 0.012 | CS(=O)(=O)c1ccccc1-c1ccc(NC(=O)NN(c2ccccc2)c2cccc(C(=N)N)c2)c(F)c1 [Compound 9, 1-(3-amidinophenyl)-4-(3-fluoro-2′-methylsulfonylbiphenyl-4-yl)-1-phenylsemicarbazide]
3 | 2.4 | 4.2 | CS(=O)(=O)c1ccccc1-c1ccc(NC(=O)NN(c2ccccc2)c2cccc(CN)c2)c(F)c1 [Compound 10, 1-(3-aminomethylphenyl)-4-(3-fluoro-2′-methylsulfonylbiphenyl-4-yl)-1-phenylsemicarbazide]
